Results reported in publication PMC6843816, “Angiotensin Converting Enzyme (ACE)-Peptide Interactions: Inhibition Kinetics, In Silico Molecular Docking and Stability Study of Three Novel Peptides Generated from Palm Kernel Cake Proteins” (Biomolecules, 2019).
Several values for one entry are separate records, joined by “and”; a condition that tells them apart may be missing. Equal entries are not always repeated. Where two headings read alike, the source gives them in different places. Peptide text beside a SMILES is read from it.

Tests used:
[1] = molecular target: T1, angiotensin-converting enzyme (ACE) (Oryctolagus cuniculus, UniProt P12822); assay: Peptide stability study: hydrolysis of peptides by ACE, RP-HPLC; format: in vitro ADME, rabbit; conditions: 37 °C, peptide 4 mM; for metabolised at 0.5 h, 2.4 mM / metabolised at 1 h, 2.4 mM / metabolised at 2 h, 2.4 mM / metabolised at 3 h, 2.4 mM: rabbit, isolated angiotensin-converting enzyme (ACE), read-out: Cleavage (%); for metabolised at 1 h, 2.4 mM: incubation with ACE 1 h; for metabolised at 2 h, 2.4 mM: incubation with ACE 2 h
T1 construct: Angiotensin-I-converting enzyme (rabbit lung); purchased Sigma Chemical Co., (St Louis, MO, USA); host or cells: rabbit lung tissue
T1 sequence (P12822 34-1310): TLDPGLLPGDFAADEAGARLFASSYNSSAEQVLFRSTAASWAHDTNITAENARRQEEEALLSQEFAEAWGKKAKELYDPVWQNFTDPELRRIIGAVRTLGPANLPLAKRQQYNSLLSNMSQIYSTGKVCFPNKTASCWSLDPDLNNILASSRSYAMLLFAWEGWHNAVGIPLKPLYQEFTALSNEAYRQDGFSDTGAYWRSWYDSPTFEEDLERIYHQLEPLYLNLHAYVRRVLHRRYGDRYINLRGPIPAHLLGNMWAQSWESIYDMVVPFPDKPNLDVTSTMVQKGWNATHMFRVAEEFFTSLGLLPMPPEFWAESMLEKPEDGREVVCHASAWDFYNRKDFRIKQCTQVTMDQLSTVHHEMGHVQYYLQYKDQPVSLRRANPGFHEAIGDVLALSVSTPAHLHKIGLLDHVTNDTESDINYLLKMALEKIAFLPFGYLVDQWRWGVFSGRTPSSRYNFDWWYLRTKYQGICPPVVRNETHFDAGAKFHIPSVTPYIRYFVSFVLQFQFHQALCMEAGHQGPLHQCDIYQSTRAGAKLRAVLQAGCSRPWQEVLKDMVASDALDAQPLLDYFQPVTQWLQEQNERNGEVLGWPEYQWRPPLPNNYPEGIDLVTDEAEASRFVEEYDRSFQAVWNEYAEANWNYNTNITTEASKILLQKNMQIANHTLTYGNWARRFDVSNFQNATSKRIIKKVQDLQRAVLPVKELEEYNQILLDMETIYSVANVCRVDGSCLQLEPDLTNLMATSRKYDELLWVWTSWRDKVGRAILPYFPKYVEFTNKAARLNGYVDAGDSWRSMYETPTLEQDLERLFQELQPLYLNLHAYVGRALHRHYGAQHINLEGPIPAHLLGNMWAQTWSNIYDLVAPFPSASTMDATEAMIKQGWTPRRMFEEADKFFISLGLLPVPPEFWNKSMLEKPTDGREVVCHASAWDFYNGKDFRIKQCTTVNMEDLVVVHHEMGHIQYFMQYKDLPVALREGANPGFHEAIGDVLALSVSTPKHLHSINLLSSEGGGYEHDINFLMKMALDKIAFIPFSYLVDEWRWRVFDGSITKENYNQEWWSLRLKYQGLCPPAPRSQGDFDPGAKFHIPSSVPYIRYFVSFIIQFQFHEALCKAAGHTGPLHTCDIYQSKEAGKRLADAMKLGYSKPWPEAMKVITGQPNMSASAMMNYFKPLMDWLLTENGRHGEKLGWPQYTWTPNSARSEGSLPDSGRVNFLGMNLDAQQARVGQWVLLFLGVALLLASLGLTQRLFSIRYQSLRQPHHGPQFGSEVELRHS
Description: Peptide stability study was carried out using the method described by Forghani et al. and Yang, Marczak, Yokoo, Usui and Yoshikawa with modifications. Each peptide solution (225 µL), at a concentration of 4 mM, was incubated with 150 µl of ACE (100 mU/mL) at 37 °C and incubation time of 0, 0.5, 1, 2 and 3 h. Peptide samples were withdrawn at their respective incubation time separately and kept in ice prior to analysis by HPLC. A 20-µL sample was loaded onto a Hypersil GOLD C18 column (4.6 × 250 mm) attached to a LC 20AT apparatus (Shimadzu Co., Kyoto, Japan). The column was conditioned with eluent A (0.1% TFA in DW) and eluted with 100% eluent A from 0 to 10 min. The peptides were eluted with eluent B (0.1% TFA in CH3CN) with a gradient elution of 0–100% for 10–50 min. The absorbance was read at 215 nm.

[2] = molecular target: T1, angiotensin-converting enzyme (ACE); assay: ACE-inhibitory capacity of peptides with and without pre-incubation with ACE; IC50; format: biochemical, rabbit; conditions: for IC50: unit given, not in Table 5, read-out: ACE Inhibition (IC50); for ACE-Inhibitory Capacity (%) Without Pre-Incubation: without pre-incubation with ACE
[3] = molecular target: T1, angiotensin-converting enzyme (ACE); assay: Kinetics study of ACE inhibition (Michaelis-Menten and Lineweaver-Burk plots, HHL substrate); format: biochemical, rabbit; conditions: from plot of 1/Vmax against inhibitor concentration; read-out: Kiu (mM) (enzyme-inhibitor dissociation constant)
Description: Mode of enzyme inhibition, maximum initial velocity (Vmax), Michaelis-Menten constant (Km), inhibitory constant (Ki) and catalytic efficiency were determined using Michaeles-Menten and Lineweaver-Burk plots of 1/v versus 1/[S].
Enzyme activity was shown as nmol hippuric acid produced per min of enzymatic reaction. Michaelis-Menten and Lineweaver-Burk plots were created using GRAPHPAD PRISM 6.07 (GraphPad, Software Inc., San Diego, CA, USA) software. Vmax and Km were calculated using the same software. Kiu was calculated from the plot of 1/Vmax against inhibitor concentration at the intercept on the inhibitor concentration axis).

ACE = conditions: read-out: Kiu, cited from earlier work
[4] = peptides generated from Stichopus horrens

Molecule | Cleavage (%) ([1]; incubation with ACE 0.5 h) | Cleavage (%) ([1]; incubation with ACE 3 h) | metabolised at 0.5 h, 2.4 mM ([1]; incubation with ACE 0.5 h) [%] | metabolised at 1 h, 2.4 mM [1] [%] | metabolised at 2 h, 2.4 mM [1] [%] | metabolised at 3 h, 2.4 mM ([1]; incubation with ACE 3 h) [%] | IC50 [2] [µM] | ACE-Inhibitory Capacity (%) With Pre-Incubation [2] [%] | ACE-Inhibitory Capacity (%) Without Pre-Incubation [2] [%] | Ki [3] [mM] | Ki (ACE; [4]) [µM] | Ki (ACE; ref Udenigwe, et al. 31) [µM]
CC(C)C[C@H](NC(=O)[C@H](CC(C)C)NC(=O)[C@H](C)NC(=O)[C@H](Cc1ccc(O)cc1)NC(=O)[C@H](Cc1c[nH]cn1)NC(=O)CNC(=O)[C@H](C)NC(=O)CNC(=O)[C@H](CCC(=O)O)NC(=O)[C@H](CCC(N)=O)NC(=O)[C@@H](NC(=O)CN)C(C)C)C(=O)O [GVQEGAGHYALL] (H-GVQEGAGHYALL-OH; N-terminus and C-terminus assumed) | 46 | 97% | 46 ± 1.5 | 65 ± 2.6 | 86 ± 3.1 | 97 ± 3.4 | 239 | 75 ± 2.11 | 70 ± 1.15 | 3.18 | – | –
C[C@H](NC(=O)[C@@H](N)Cc1c[nH]c2ccccc12)C(=O)N[C@@H](Cc1ccccc1)C(=O)N[C@@H](CO)C(=O)O [WAFS] (H-WAFS-OH; N-terminus and C-terminus assumed) | 43 | 68% | 43 ± 2 | 42 ± 1.6 | 63 ± 3 | 68 ± 3.4 | 202 | 56 ± 1.34 | 55 ± 1.81 | 2 | – | –
CC(C)C[C@H](NC(=O)[C@H](CC(C)C)NC(=O)[C@H](CC(C)C)NC(=O)[C@@H](N)Cc1ccc(O)cc1)C(=O)N[C@@H](CCCCN)C(=O)O [YLLLK] (H-YLLLK-OH; N-terminus and C-terminus assumed) | 91.7 | 94% and 94.3% | 92 ± 2.8 | 93 ± 1.9 | 94 ± 3 | 94 ± 2.7 | 47 | 80 ± 2.04 | 100 ± 2.99 | – | – | –
CRQNTLGHNTQTSIAQ | – | – | – | – | – | – | – | – | – | – | 210 | –
SAAVGSP | – | – | – | – | – | – | – | – | – | – | 1570 | –
VSRHFASYAN | – | – | – | – | – | – | – | – | – | – | 610 | –
WVYY | – | – | – | – | – | – | – | – | – | – | – | 60
